“And” between values parts separate entries of the source, which are not always exact repeats. Identical values can stand only once.
Key:
[1] = tested on: Matrigel plugs; assay: Mouse Matrigel model of angiogenesis (plug hemoglobin); type: in vivo, mice (C57BL/6NCr); settings: for Inhibition of FGF induced angiogenesis (grade): mouse matrigel model
Protocol: Normal male mice (C57BL/6NCr) 6-8 weeks of age and weighing ~20 g were purchased from Taconic farm. Animals were housed 4 per cage, in controlled conditions of temperature (20-24 °C); humidity (60-70%) and 12 hrs. light/dark cycle provided with food and water ad libitum. […] Matrigel (BD Bioscience, San Jose CA) was thawed overnight at 4 °C and placed on ice. Aliquots of matrigel were placed into cold polypropylene tubes to prevent the matrigel from solidifying and the angiogenesis promoter added to matrigel with or without agonist. Mice were treated daily. Matrigel was subcutaneously injected as triple injection per animal at 100 µL/animal. At day 14 post plug implant all animals were killed in CO2 chamber and matrigel plugs were collected. […]
The matrigel plugs dissected from the mice were carefully stripped of any remaining peritoneum. The plugs were placed into 0.5 mL tube of ddH2O and homogenized for 5-10 min. […] Absorbance was read with a Microplate Manager ELISA reader at 540 nm. […] Hemoglobin concentration is a reflection of the number of blood vessels in the plugs.

[2] = tested on: chick chorioallantoic membrane (CAM); assay: Chorioallantoic membrane (CAM) model of angiogenesis; type: in vivo; settings: for Mean Branch points: n=8
Protocol: In vivo neovascularization was examined by methods described previously. 9-12 Ten-day-old chick embryos were purchased from SPAFAS (Preston, CT) and incubated at 37°C with 55% relative humidity. A hypodermic needle was used to make a small hole in the shell concealing the air sac, and a second hole was made on the broad side of the egg, directly over an avascular portion of the embryonic membrane that was identified by candling. A false air sac was created beneath the second hole by the application of negative pressure at the first hole, causing the CAM to separate from the shell. A window approximately 1.0 cm^2 was cut in the shell over the dropped CAM with a small-crafts grinding wheel (Dremel, division of Emerson Electric Co.), allowing direct access to the underlying CAM. FGF2 (1µg/mL) was used as a standard proangiogenic agent to induce new blood vessel branches on the CAM of 10-day-old embryos. Sterile disks of No. 1 filter paper (Whatman International) were pretreated with 3 mg/mL cortisone acetate and 1 mmol/L PTU and air dried under sterile conditions. Thyroid hormone, hormone analogs, FGF2 or control solvents, and inhibitors were then applied to the disks and the disks allowed to dry. The disks were then suspended in PBS and placed on growing CAMs. […] At 24 hours, the MAPK cascade inhibitor PD 98059 was also added to CAMs topically by means of the filter disks.
After incubation at 37°C with 55% relative humidity for 3 days, the CAM tissue directly beneath each filter disk was resected from control and treated CAM samples. Tissues were washed 3X with PBS, placed in 35-mm Petri dishes (Nalge Nunc), and examined under an SV6 stereomicroscope (Zeiss) at X50 magnification. Digital images of CAM sections exposed to filters were collected using a 3-charge-coupled device color video camera system (Toshiba) and analyzed with Image-Pro software (Media Cybernetics). The number of vessel branch points contained in a circular region equal to the area of each filter disk were counted. One image was counted in each CAM preparation, and findings from 8 to 10 CAM preparations were analyzed for each treatment condition (thyroid hormone or analogs, FGF2, FGF2 antibody, PD 98059). In addition, each experiment was performed 3 times. The resulting angiogenesis index is the mean ± SEM of new branch points.

[3] = tested on: glioblastoma (GBM); settings: mild hypothyroidism induced by PTU; cited from earlier work
[4] = tested on: transplantable liver tumor; settings: PTU alone; cited from earlier work
[5] = tested on: ERK1/2; assay: MAPK activation (nuclear phosphorylated ERK1/2 immunoblot); type: cell-based; settings: for effect on MAPK activation by T4: PD 98059 30 µmol/L or CGP41251 100 nmol/L for 30 minutes, then 10^-7 M T4
Protocol: ECV304 endothelial cells were cultured in M199 medium with 0.25% hormone-depleted serum 13 for 2 days. […] Nuclear fractions were pre-pared from all samples by the method reported previously (see Li et al., Carcinogenesis 29:62-69 (2008)), the proteins separated by polyacrylamide gel electrophoresis, and transferred to membranes for immunoblotting with antibody to phosphorylated ERK 1/2.

[6] = tested on: FGF2 cDNA; assay: RT-PCR of FGF2 in ECV304 cells; type: cell-based; settings: T4 10^-7 mol/L for 6 to 48 hours
Protocol: RNA (1 µg) was subjected to reverse transcription-polymerase chain reaction (RT-PCR) using the Access RT-PCR system (Promega). Total RNA was reverse transcribed into cDNA at 48°C for 45 minutes, then denatured at 94°C for 2 minutes. Second-strand synthesis and PCR amplification were performed for 40 cycles with denaturation at 94°C for 30 s, annealing at 60°C for 60 s, and extension at 68°C for 120 s, with final ex-tension for 7 minutes at 68°C after completion of all cycles. PCR primers for FGF2 were as follows: FGF2 sense strand 5'-[…]-3' (SEQ ID NO:1), antisense strand 5' […]-3' (SEQ ID NO:2); the length of the PCR product was 734 bp. Primers for GAPDH included the sense strand 5'-[…]-3' (SEQ ID NO:3), and antisense strand 5'-[…]-3' (SEQ ID NO:4); the length of the PCR product was 218 bp. […] The target bands of the gel were quantified using LabImage software (Kapelan), and the value for [FGF2/GAPDH]X10 calculated for each time point.

[7] = tested on: ECV304 endothelial cells; assay: FGF2 release from ECV304 endothelial cells (ELISA); type: cell-based
Protocol: ECV304 endothelial cells were cultured in M199 medium supplemented with 10% fetal bovine serum. […] After 72 hours, the supernatants were harvested and assays for FGF performed without dilution using a commercial ELISA system (R&D Systems) (See Davis et al., Circ Res 94:1500-1506 (2004)).

[8] = cited from earlier work
[9] = FGF 100 ng + compound 10 µg/plug, n= 7-14
[10] = CAM model, FGF (1.25 µg/ml) + compound at 10 µg/plug

CNC(Cc1cc(I)c(Oc2cc(I)c(O)c(I)c2)c(I)c1)C(=O)[O-].O.O.[K+] (centres unmarked) [T4 analog 10, Potassium 3-[4-(4-hydroxy-3,5-diiodophenoxy)-3,5-diiodophenyl]-2-(methylamino)propanoate dihydrate]
Hemoglobin (mg/mL)± SEM ([1]; 10 µg/matrigel plug, n= 6-7): 0.8 ± 0.2 mg/mL

O=C(Cc1cc(I)c(Oc2cc(I)c(OCC3CO3)c(I)c2)c(I)c1)NC1CCCCC1 (centres unmarked) [Tetrac analog 6, N-cyclohexyl-2-(4-(3,5-diiodo-4-(oxiran-2-ylmethoxy)phenoxy)-3,5-diiodophenyl)acetamide]
Hemoglobin (mg/mL)± SEM [1, 9]: 0.7 ± 0.1 mg/mL | Inhibition of FGF induced angiogenesis (grade) [1]: strong (compounds were considered to be strong inhibitors if they achieved more than 50% inhibition as compared to the control)

CCNC(Cc1cc(I)c(Oc2cc(I)c(O)c(I)c2)c(I)c1)C(=O)O (centres unmarked) [T4 analog 11, 2-(Ethylamino)-3-[4-(4-hydroxy-3,5-diiodophenoxy)-3,5-diiodophenyl]propanoic acid]
Mean stimulation of angiogenesis (%) ([1]; 10 µg/matrigel plug): 45±33% | Hemoglobin (mg/mL)± SEM ([1]; 10 µg/matrigel plug, n= 6-7): 0.6 ± 0.2 mg/mL | Mean % of stimulation (comparing to PBS) ([2]; CAM model, 0.1 µM): 86.3 ± 9.4% | Mean Branch points ([2]; CAM model, 0.1 µM, mean ± SEM): 136± 12.8

CCCc1cc(=O)[nH]c(=S)[nH]1 [PTU, 6-N-propyl-2-thiouracil]
improvement of the duration of survival [3]: 3 fold | growth rate versus control neoplasms [4]: no difference in growth rate

CC(C)(C)OC(=O)NC(Cc1cc(I)c(Oc2cc(I)c(OCC3CO3)c(I)c2)c(I)c1)C(=O)OCC1CO1 (centres unmarked) [T4 analog 14, Oxiran-2-ylmethyl-2-(tert-butoxycarbonylamino)-3-(4-(3,5-diiodo-4-(oxiran-2-ylmethoxy)phenoxy)-3,5-diiodophenyl)propanoate]
Hemoglobin (mg/mL)± SEM ([1]; 10 µg/matrigel plug, n= 6-7): 0.3 ± 0.1 mg/mL

CO[C@@H]1[C@H](N(C)C(=O)c2ccccc2)C[C@H]2O[C@]1(C)n1c3ccccc3c3c4c(c5c6ccccc6n2c5c31)C(=O)NC4 [CGP41251]
effect on MAPK activation by T4 [5]: blocked

N[C@@H](Cc1cc(I)c(Oc2cc(I)c(O)c(I)c2)c(I)c1)C(=O)O [T4, L-thyroxine]
appearance of phosphorylated ERK1/2 in cell nuclei ([5]; T4 10^-7 mol/L): ≤ 15 min | Hemoglobin (mg/mL)± SEM ([1]; T4 (0.1 µM)): 0.9 ± 0.2 mg/mL | Mean stimulation of angiogenesis (%) ([1]; T4 (0.1 µM)): 100±22% | Hemoglobin (mg/mL)± SEM ([1]; T4 alone, 10 µg/matrigcl plug, n= 25): 1.2 ± 0.4 mg/mL | increase in abundance of FGF2 cDNA, corrected for GAPDH content [6]: apparent by 6 hours | increase of FGF2 concentration in the medium ([7]; T4 (0.1 µmol/L) or T3 (0.01 µmol/L) for 3 days): 1.4 fold | FGF2 (pg/mL/10^6 cells) ([7]; T4 (0.1 µmol/L), 3 days): 39.2 ±2.8 pg/mL/10^6 cells | pKa of the COOH (carboxylic acid) group [8]: ~2.0 | pKa of the NH2 (amino) group [8]: approximately 9.0 | pKa of the PhOH (phenol) group ([8]; fluorescent quenching): 6.2 | generation of new blood vessels from existing vessels promoted ([2]; 10^7-10-^9 M): two- to three-fold | Branch pts ± SEM ([2]; CAM assay before conjugation, 0.1 µM): 137.3 ± 8.8 | increase in angiogenesis ([2]; CAM model, 3 experiments (Figure 5A)): 1.5 fold | Mean % of stimulation (comparing to PBS) ([2]; CAM model, 0.1 µM): 87.7 ± 7% | Mean Branch points ([2]; CAM model, 0.1 µM, mean ± SEM): 137± 8 | ANGIOGENESIS INDEX ([2]; CAM model, 0.1uM, n = 8 per group): 143.8 ± 7.9 | increase in blood vessel branch formation ([2]; T4 0.1 µmol/L for 3 days): 2.5 fold and 2.3 fold

CC(C)[Si](OC(=O)Cc1cc(I)c(Oc2cc(I)c(O)c(I)c2)c(I)c1)(C(C)C)C(C)C [Tetrac analog 5, Triisopropylsilyl-2-(4-(4-hydroxy-3,5-diiodophenoxy)-3,5-diiodophenyl)acetate]
Hemoglobin (mg/mL)± SEM [1, 9]: 0.2 ± 0.1 mg/mL | Inhibition of FGF induced angiogenesis (grade) [1]: strong (compounds were considered to be strong inhibitors if they achieved more than 50% inhibition as compared to the control)

CC(C)(C)OC(=O)Cc1cc(I)c(Oc2cc(I)c(O)c(I)c2)c(I)c1 [Tetrac analog 3, tert-Butyl-2-(4-(4-hydroxy-3,5-diiodophenoxy)-3,5-diiodophenyl)acetate]
Hemoglobin (mg/mL)± SEM [1, 9]: 0.4 ± 0.1 mg/mL | Inhibition of FGF induced angiogenesis (grade) [1]: strong (compounds were considered to be strong inhibitors if they achieved more than 50% inhibition as compared to the control) | Mean % Inhibition [2, 10]: 88±13% | Mean Branch points [2, 10]: 79±7

O=C(Cc1cc(I)c(Oc2cc(I)c(O)c(I)c2)c(I)c1)NC1CCCCC1 [Tetrac analog 4, N-cyclohexyl-2-(4-(4-hydroxy-3.5-diiodophenoxy)-3,5-diiodophenyl)acetamide]
Hemoglobin (mg/mL)± SEM [1, 9]: 0.2 ± 0.1 mg/mL | Inhibition of FGF induced angiogenesis (grade) [1]: strong (compounds were considered to be strong inhibitors if they achieved more than 50% inhibition as compared to the control)

COc1cccc(-c2cc(=O)c3ccccc3o2)c1N [PD 98059]
effect on MAPK activation by T4 [5]: inhibited | effect on blood vessel branching caused by T3 and T4 ([2]; 3 µmol/L PD 98059): completely blocked

— EP2662079A1 (Ordway Research Institute, Inc., priority 2012, dated 2013)
